In patent EP4707280A1, “1,4-CINEOLE DERIVATIVE AND INTERMEDIATE THEREOF, HERBICIDE CONTAINING SAID DERIVATIVE AS ACTIVE INGREDIENT, METHOD FOR USING HERBICIDE, AND METHOD FOR PREPARING AGROCHEMICAL COMPOSITION” (HOKKO CHEMICAL INDUSTRY CO., LTD., priority 2023, dated 2024):

Tests used:
Type in all cases: in vivo
[1] = system: Digitaria ciliaris; assay: Test Example 7: herbicidal effect test by soil application in upland field (low dose); settings: Digitaria ciliaris, 7.5 g per 10 ares, sprayed one day after sowing, 14 days after application, read-out: weed inhibition rate
Outline: (§1)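 Upland soil (alluvial loam) pots, seeds mixed into top 1 cm layer → EC formulation diluted with water, sprayed onto soil 1 d post-sowing, 100 L/10 a → 7.5 g a.i./10 a → inhibition (%) scored at 14 d, n=2.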

[2] = system: Echinochloa crus-galli; assay: as above; settings: Echinochloa crus-galli, 7.5 g per 10 ares, sprayed one day after sowing, 14 days after application, read-out: weed inhibition rate
Outline: as §1

[3] = system: Amaranthus viridis; assay: Test Example 3: herbicidal effect test by soil application in upland field; settings: Amaranthus viridis, 120 g per 10 ares, sprayed one day after sowing, 14 days after application, read-out: weed inhibition rate
Outline: (§2)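 Weed inhibition (%) was assessed 14 days after treatment, in duplicate per concentration group. Seeds had been mixed into the upper 1 cm of upland alluvial loam, and the soil surface was sprayed one day later with the diluted emulsifiable concentrate at 120 g active ingredient per 10 ares.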

[4] = system: Chenopodium album; assay: as above; settings: 120 g per 10 ares, sprayed one day after sowing, 14 days after application, read-out: weed inhibition rate
Outline: as §2

[5] = system: Scirpus juncoides; assay: Test Example 6: herbicidal effect test by application during growth period of paddy rice (low dose); settings: Schoenoplectiella juncoides; 7.5 g per 10 ares; applied seven days after sowing, flooded pots; 14 days after application; read-out: weed inhibition rate
Outline: (§3)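 Emulsifiable concentrate, water-diluted, dropped onto flooded paddy pots 7 days post-sowing at 7.5 g active ingredient/10 a. Greenhouse-grown weeds; percent inhibition scored at day 14 after treatment.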

[6] = system: Monochoria vaginalis; assay: as above; settings: Pontederia vaginalis; 7.5 g per 10 ares; applied seven days after sowing, flooded pots; 14 days after application; read-out: weed inhibition rate
Outline: as §3

[7] = system: Echinochloa crus-galli var. formosensis; assay: as above; settings: Echinochloa crus-galli; 7.5 g per 10 ares; applied seven days after sowing, flooded pots; 14 days after application; read-out: weed inhibition rate
Outline: as §3

[8] = system: Scirpus juncoides; assay: Test Example 1: herbicidal effect test by soil application in paddy rice; settings: Schoenoplectiella juncoides, soil, 336 h; 120 g active ingredient per 10 ares; applied immediately after sowing, flooded pots; 14 days after application; read-out: weed inhibition rate
Outline: (§4)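 Treatment: 120 g active ingredient per 10 ares as a water-diluted emulsifiable concentrate, dropped onto flooded pots immediately after sowing. Thirty seeds per species went 0–1 cm into puddled paddy soil with 16:16:16 fertilizer, with ~3 cm flooding maintained in a glass greenhouse.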

[9] = system: Echinochloa crus-galli var. formosensis; assay: as above; settings: Echinochloa crus-galli, soil, 336 h; 120 g active ingredient per 10 ares; applied immediately after sowing, flooded pots; 14 days after application; read-out: weed inhibition rate
Outline: as §4

[10] = system: Scirpus juncoides; assay: Test Example 2: herbicidal effect test by application during growth period of paddy rice; settings: Schoenoplectiella juncoides; 120 g per 10 ares; applied seven days after sowing, flooded pots; 14 days after application; read-out: weed inhibition rate
Outline: (§5)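 Steps: puddle fertilized paddy soil; sow 30 seeds of each weed at 0–1 cm; flood to roughly 3 cm and keep in a glasshouse; at day 7 drop in diluted emulsifiable concentrate (120 g a.i. per 10 ares); score inhibition (%) 14 days later, two replicates.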

[11] = system: Monochoria vaginalis; assay: as above; settings: Pontederia vaginalis; 120 g per 10 ares; applied seven days after sowing, flooded pots; 14 days after application; read-out: weed inhibition rate
Outline: as §5

[12] = system: Echinochloa crus-galli var. formosensis; assay: as above; settings: Echinochloa crus-galli; 120 g per 10 ares; applied seven days after sowing, flooded pots; 14 days after application; read-out: weed inhibition rate
Outline: as §5

C=CCO[C@@H]1C[C@]2(C)O[C@@]1(C(C)C)C[C@H]2OCc1ccccc1F [1-930, (1S,2R,4R,5R)-2-[(2-fluorophenyl)methoxy]-1-methyl-4-isopropyl-5-prop-2-enoxy-7-oxabicyclo[2.2.1]heptane]
≥ 80%: inhibition at 75 g/ha [1] | inhibition at 75 g/ha [2] | inhibition at 1200 g/ha [3] | inhibition at 1200 g/ha [4] | inhibition at 75 g/ha [5] | inhibition at 75 g/ha [6] | inhibition at 75 g/ha [7] | pest or weed control at 1200 g/ha [8] | pest or weed control at 1200 g/ha [9] | inhibition at 1200 g/ha [10] | inhibition at 1200 g/ha [11] | inhibition at 1200 g/ha [12]

C=C1C[C@]2(C)O[C@@]1(C(C)C)C[C@H]2OCc1ccccc1F [2-88, (1R,4S,5R)-5-((2-fluorobenzyl)oxy)-1-isopropyl-4-methyl-2-methylene-7-oxabicyclo[2.2.1]heptane]
≥ 80%: inhibition at 75 g/ha [1] | inhibition at 75 g/ha [2] | inhibition at 1200 g/ha [3] | inhibition at 1200 g/ha [4] | inhibition at 75 g/ha [5] | inhibition at 75 g/ha [6] | inhibition at 75 g/ha [7] | pest or weed control at 1200 g/ha [8] | pest or weed control at 1200 g/ha [9] | inhibition at 1200 g/ha [10] | inhibition at 1200 g/ha [11] | inhibition at 1200 g/ha [12]

C=C1C[C@]2(C)O[C@@]1(C(C)C)C[C@H]2OCc1ccccc1C [2-72, (1R,4S,5R)-1-isopropyl-4-methyl-5-((2-methylbenzyl)oxy)-2-methylene-7-oxabicyclo[2.2.1]heptane]
≥ 80%: inhibition at 75 g/ha [1] | inhibition at 75 g/ha [2] | inhibition at 1200 g/ha [3] | inhibition at 1200 g/ha [4] | inhibition at 75 g/ha [5] | inhibition at 75 g/ha [6] | inhibition at 75 g/ha [7] | pest or weed control at 1200 g/ha [8] | pest or weed control at 1200 g/ha [9] | inhibition at 1200 g/ha [10] | inhibition at 1200 g/ha [11] | inhibition at 1200 g/ha [12]

C#CCO[C@@H]1C[C@]2(C)O[C@@]1(C(C)C)C[C@H]2OCc1ccccc1F [1-931, (1S,2R,4R,5R)-2-[(2-fluorophenyl)methoxy]-1-methyl-4-isopropyl-5-prop-2-ynoxy-7-oxabicyclo[2.2.1]heptane]
≥ 80%: inhibition at 75 g/ha [1] | inhibition at 75 g/ha [2] | inhibition at 1200 g/ha [3] | inhibition at 1200 g/ha [4] | inhibition at 75 g/ha [5] | inhibition at 75 g/ha [6] | inhibition at 75 g/ha [7] | pest or weed control at 1200 g/ha [8] | pest or weed control at 1200 g/ha [9] | inhibition at 1200 g/ha [10] | inhibition at 1200 g/ha [11] | inhibition at 1200 g/ha [12]

CO[C@H]1C[C@]2(C)O[C@@]1(C(C)C)C[C@H]2OCc1ccccc1F [1-156, (1S,2R,4R,5S)-2-((2-fluorobenzyl)oxy)-4-isopropyl-5-methoxy-1-methyl-7-oxabicyclo[2.2.1]heptane]
≥ 80%: inhibition at 75 g/ha [1] | inhibition at 75 g/ha [2] | inhibition at 1200 g/ha [3] | inhibition at 1200 g/ha [4] | inhibition at 75 g/ha [5] | inhibition at 75 g/ha [6] | inhibition at 75 g/ha [7] | pest or weed control at 1200 g/ha [8] | pest or weed control at 1200 g/ha [9] | inhibition at 1200 g/ha [10] | inhibition at 1200 g/ha [11] | inhibition at 1200 g/ha [12]

CC(C)[C@]12C=C[C@](C)(O1)C(OCc1ccccc1F)C2 (mixture of isomers) [3-5, (1R,4S,SR)-5-[(2-fluorophenyl)methoxy]-4-methyl-1-isopropyl-7-oxabicyclo[2.2.1]hept-2-ene]
≥ 80%: inhibition at 75 g/ha [1] | inhibition at 75 g/ha [2] | inhibition at 1200 g/ha [3] | inhibition at 1200 g/ha [4] | inhibition at 75 g/ha [5] | inhibition at 75 g/ha [6] | inhibition at 75 g/ha [7] | pest or weed control at 1200 g/ha [8] | pest or weed control at 1200 g/ha [9] | inhibition at 1200 g/ha [10] | inhibition at 1200 g/ha [11] | inhibition at 1200 g/ha [12]

CC(C)[C@]12C[C@@H](OCc3ccccc3F)[C@](C)(CC1OCC1CC1)O2 (mixture of isomers) [1-921, (1S,2R,4R,SR)-5-(cyclopropylmethoxy)-2-[(2-fluorophenyl)methoxy]-1-methyl-4-isopropyl-7-oxabicyclo[2.2.1]heptane]
≥ 80%: inhibition at 75 g/ha [1] | inhibition at 75 g/ha [2] | inhibition at 1200 g/ha [3] | inhibition at 1200 g/ha [4] | inhibition at 75 g/ha [5] | inhibition at 75 g/ha [6] | inhibition at 75 g/ha [7] | pest or weed control at 1200 g/ha [8] | pest or weed control at 1200 g/ha [9] | inhibition at 1200 g/ha [10] | inhibition at 1200 g/ha [11] | inhibition at 1200 g/ha [12]

CC(C)[C@]12C[C@@H](OCc3ccccc3F)[C@](C)(CC1=O)O2 [2-9, (1R,4S,5R)-5-((2-fluorobenzyl)oxy)-1-isopropyl-4-methyl-7-oxabicyclo[2.2.1]heptan-2-one]
≥ 80%: inhibition at 75 g/ha [1] | inhibition at 75 g/ha [2] | inhibition at 1200 g/ha [3] | inhibition at 1200 g/ha [4] | inhibition at 75 g/ha [5] | inhibition at 75 g/ha [6] | inhibition at 75 g/ha [7] | pest or weed control at 1200 g/ha [8] | pest or weed control at 1200 g/ha [9] | inhibition at 1200 g/ha [10] | inhibition at 1200 g/ha [11] | inhibition at 1200 g/ha [12]
